Test results published in the supplement of paper PMC13380429.

How the values were obtained:
Caco-2 [1] = assay: cell viability relative to DMSO; higher = less toxic; conditions: 72 h
Calu-3 [2] = assay: as above; conditions: 72 h
Vero E6 [3] = assay: as above; conditions: 72 h
HepG2 [4] = assay: as above; conditions: 72 h
U2OS [5] = assay: as above; conditions: 72 h
[6] = tested on: A549-ACE2 infected with SARS-CoV-2; assay: cell count relative to DMSO; higher = less toxic; conditions: 24 h
A549-ACE2 = assay: drug-induced phospholipidosis relative to tamoxifen; higher = more phospholipidosis
Caco-2 [7] = assay: relative viability EC50 (midpoint between 100% and the lowest measured viability); higher = less toxic; conditions: 72 h
Calu-3 [8] = assay: as above; conditions: 72 h
Vero E6 [9] = assay: as above; conditions: 72 h
HepG2 [10] = assay: as above; conditions: 72 h
U2OS [11] = assay: as above; conditions: 72 h
Caco-2 [12] = assay: drug sensitivity score (DSS) for viability; higher = more toxic; extreme values may be limits of the assay; conditions: 72 h
Calu-3 [13] = assay: as above; conditions: 72 h
Vero E6 [14] = assay: as above; conditions: 72 h
HepG2 [15] = assay: as above; conditions: 72 h
U2OS [16] = assay: as above; conditions: 72 h
[17] = tested on: A549-ACE2 infected with SARS-CoV-2; assay: SARS-CoV-2 infection rate relative to DMSO; higher = more infection; conditions: 24 h
[18] = tested on: A549-ACE2 infected with SARS-CoV-2; assay: morphology score (similarity to uninfected cells); higher = more like uninfected cells; conditions: 24 h

COc1ccc2c(C)nc(Nc3nc(C)c(C)c(O)n3)nc2c1 [madrasin]
Conditions | SARS-CoV-2 infection rate, [17] [%] | cell count, [6] [%] | cell viability, Caco-2 [1] [%] | cell viability, Calu-3 [2] [%] | cell viability, HepG2 [4] [%] | cell viability, U2OS [5] [%] | cell viability, Vero E6 [3] [%] | morphology score, [18]
1 nM | – | – | 105 | 94.7 | 89.9 | 98.6 | 82.8 | –
10 nM | – | – | 99.2 | 84 | 95.4 | 98.1 | 99.1 | –
100 nM | – | – | 119 | 97 | 90.9 | 102 | 91 | –
0.3 µM | 90 | 102 | – | – | – | – | – | 0.29
1000 nM | – | – | 101 | 108 | 92.7 | 98.8 | 98.1 | –
3 µM | 88 | 105 | – | – | – | – | – | 0.36
10000 nM | – | – | 98.3 | 94.6 | 93.5 | 97 | 111 | –
10 µM | 96 | 102 | – | – | – | – | – | 0.21
30 µM | 1 | 95 | – | – | – | – | – | 0.75

drug-induced phospholipidosis [%], A549-ACE2
Conditions | 0.3 µM | 0.833333 µM | 3.33333 µM | 6.66667 µM | 10 µM | 30 µM
24 h | 2.49 | -0.05 | -3.35 | -1.32 | 1.34 | 56
48 h | 3.81 | -2.33 | -1.09 | 0.46 | 1.75 | –
72 h | 0.061 | -7.49 | 0.0944 | -0.243 | 1.1 | –

Conditions | drug sensitivity score | relative viability EC50 [µM]
Caco-2 [7] | – | > 10
Caco-2 [12] | 0 | –
Calu-3 [8] | – | > 10
Calu-3 [13] | 0 | –
HepG2 [10] | – | > 10
HepG2 [15] | 0 | –
U2OS [11] | – | > 10
U2OS [16] | 0 | –
Vero E6 [9] | – | > 10
Vero E6 [14] | 0 | –

C[C@H]1CCC/C=C/[C@@H]2C[C@H](O)C[C@H]2[C@H](O)/C=C/C(=O)O1 [brefeldin-A]
Conditions | SARS-CoV-2 infection rate, [17] [%] | cell count, [6] [%] | cell viability, Caco-2 [1] [%] | cell viability, Calu-3 [2] [%] | cell viability, HepG2 [4] [%] | cell viability, U2OS [5] [%] | cell viability, Vero E6 [3] [%] | morphology score, [18]
1 nM | – | – | 96.6 | 108 | 95.6 | 99.5 | 95.3 | –
10 nM | – | – | 89.7 | 97.1 | 96.6 | 99.3 | 101 | –
100 nM | – | – | 71.9 | 32.3 | 21.9 | 22.8 | 28.4 | –
0.1 µM | 33 | 108 | – | – | – | – | – | 0.73
0.3 µM | 42 | 52 | – | – | – | – | – | 0.14
1000 nM | – | – | 26.8 | 15.4 | 14.2 | 0.2 | 3.5 | –
1 µM | 16 | 38 | – | – | – | – | – | 0.32
3 µM | 30 | 35 | – | – | – | – | – | 0.26
10000 nM | – | – | 28.8 | 10.7 | 14.6 | 0.1 | 3.3 | –

A549-ACE2, 24 h
Conditions | drug-induced phospholipidosis [%]
0.3 µM | -4.02
0.833333 µM | -5.26
3.33333 µM | -7.24
10 µM | -7

Conditions | drug sensitivity score | relative viability EC50 [µM]
Caco-2 [7] | – | 0.13
Caco-2 [12] | 16.3 | –
Calu-3 [8] | – | 0.0555
Calu-3 [13] | 24.5 | –
HepG2 [10] | – | 0.0379
HepG2 [15] | 25.6 | –
U2OS [11] | – | 0.0612
U2OS [16] | 26.8 | –
Vero E6 [9] | – | 0.066
Vero E6 [14] | 25.7 | –
